Laboratory results as given in patent US20240224995A1, “USE OF CLETHODIM FOR INSECT CONTROL” (SYNGENTA CROP PROTECTION AG, priority 2021, published 2024).

Legend:
Format in all cases: in vivo
[1] = tested on: Bemisia tabaci (Silverleaf whitefly); assay: Curative control of Bemisia tabaci second nymph stage (N2) on French beans, spray application
Text: (§1) Examples 1 to 3 describe biological tests relating to the curative and preventative control of a series of insects with the spray application of dilutions of a formulation containing clethodim as sole active ingredient (ai) (EC240 formulation (SELECT®)) in combination with OCHIMAR adjuvant (Syngenta—alkyl ester of phosphoric acid (752 g/L EC) formulation) to bean or cabbage plants infested with Bemisia tabaci, Frankliniella occidentalis or Myzus persicae (four replicates). The testing protocols and insect control effects are shown below.
Curative control of Bemisia tabaci (Silverleaf whitefly), second nymph stage (N2), treated on French beans (BBCH12):
All treatments (including check) were applied with 250 ml adjuvant (OCHIMA®) per hectare.

[2] = tested on: Frankliniella occidentalis (Western flower thrips); assay: Frankliniella occidentalis mixed aged population infested on French beans three hours after treatment, plant damage evaluation; settings: 60 g ai/ha; plant damage by feeding on leaf tissue
Text: as §1
Frankliniella occidentalis (Western flower thrips), mixed aged population, infested on French beans (BBCH12) three hours after treatment.
All treatments (including check) were applied with 250 mL adjuvant (OCHIMA®) per hectare. The above table relates to an evaluation of plant damage caused by Western flower thrips feeding on leaf tissue.

[3] = tested on: Myzus persicae (Green peach aphids); assay: Curative control of Myzus persicae mixed aged population on Chinese cabbage, spray application; settings: 120 and 60 g ai/ha
Text: as §1
Curative control of Myzus persicae (Green peach aphids), mixed aged population, on Chinese cabbage (BBCH19).
All adjuvant containing treatments were applied with 250 mL adjuvant (OCHIMA®) per hectare.

CCSC(C)CC1CC(=O)C(/C(CC)=N\OC/C=C/Cl)=C(O)C1 (racemic) [clethodim, (5RS)-2-[(1EZ)-N-{[(2E)-3-chloroallyl]oxy}propanimidoyl]-5-[(2RS)-2-(ethylthio)propyl]-3-hydroxycyclohex-2-en-1-one]
efficacy against whiteflies compared to thrips or aphids ([1]; data in Tables 1 to 3): surprising selective efficacy | control effect against whiteflies against the check treatment ([1]; two ai application rates (120 and 60 g ai/ha)): significant control effect | control effect against Western flower thrips against the check treatment [2]: at best minor | control effect against aphids against the check treatment [3]: at best minor
